The values that follow come from patent US7514254B2, “Plant-derived alkaline alpha-galactosidase” (The State of Israel, Ministry of Agriculture & Rural …, priority 1998, dated 2009).

Entries after “also recorded” stand apart in the source; their conditions may differ.

The test system of assay [1] is Cucurbita pepo leaf alkaline alpha-galactosidase ("LIV" enzyme). Description: Substrate kinetics of Cucurbita pepo leaf alkaline alpha-galactosidase (Gaudreault and Webb). The assay is classed as biochemical. The conditions noted are these: calculated for prior art "LIV" enzyme of Gaudreault and Webb.
Assay [2] deals with T1, melon (Cucumis melo) fruit alkaline alpha-galactosidase Form II (Cucumis melo, UniProt Q84NI6).
T1 construct: native 102 kDa, denatured 92 kDa; assayed at pH 7.5
T1 sequence (Q84NI6 1-772): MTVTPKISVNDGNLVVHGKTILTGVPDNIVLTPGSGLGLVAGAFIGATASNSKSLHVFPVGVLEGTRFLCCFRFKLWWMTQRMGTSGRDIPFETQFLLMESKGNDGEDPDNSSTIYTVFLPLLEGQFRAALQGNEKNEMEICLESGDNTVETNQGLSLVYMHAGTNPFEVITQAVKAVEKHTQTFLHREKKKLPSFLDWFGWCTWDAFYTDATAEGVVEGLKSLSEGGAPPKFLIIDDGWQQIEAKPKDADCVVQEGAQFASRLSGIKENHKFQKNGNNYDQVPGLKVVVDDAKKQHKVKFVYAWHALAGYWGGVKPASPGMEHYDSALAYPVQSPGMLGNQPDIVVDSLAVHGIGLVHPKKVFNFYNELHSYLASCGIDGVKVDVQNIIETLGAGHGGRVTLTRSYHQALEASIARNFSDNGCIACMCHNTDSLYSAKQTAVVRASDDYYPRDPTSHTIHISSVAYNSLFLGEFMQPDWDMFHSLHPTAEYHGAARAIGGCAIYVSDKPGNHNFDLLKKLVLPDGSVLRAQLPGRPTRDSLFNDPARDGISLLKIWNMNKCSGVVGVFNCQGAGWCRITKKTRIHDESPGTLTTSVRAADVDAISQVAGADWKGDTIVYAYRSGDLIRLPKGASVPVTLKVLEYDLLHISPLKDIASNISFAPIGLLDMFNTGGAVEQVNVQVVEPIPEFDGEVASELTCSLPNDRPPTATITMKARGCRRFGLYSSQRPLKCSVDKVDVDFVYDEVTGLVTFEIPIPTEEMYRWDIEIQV
The assay can be described thus: Substrate kinetics (Lineweaver-Burk) of alkaline alpha-galactosidase Form II. The assay is classed as biochemical, muskmelon (Cucumis melo L. cv C-8). On the procedure: (§1) For routine analysis and monitoring the activity in the purification steps, alpha-galactosidase was assayed as described by Smart and Pharr (“Characterization of alpha-galactosidase from cucumber leaves”, Plant Physiology, 66:731-734, 1980), using p-nitrophenyl alpha-galactoside (pNPG) as substrate. Reaction was initiated by adding 50 μl enzyme aliquot to either 200 μl 100 mM pH 5.5 McIlvaine buffer or 100 mM pH 7.5 HEPES buffer, containing 5 mM pNPG at 35 C. The reaction was terminated after 10 min by adding 1 ml of 5% (w/v) Na2CO3 and activity expressed as nmol nitrophenol per min as measured at 410 nm. […] The assay was started by adding 50 μl enzyme preparation at 35 C and terminated after 10 to 20 min by 2 min boiling.
(§2) The fractions from the DEAE-Sepharose chromatography which were active at pH 7.5 were pooled and dialyzed against buffer A for 12 h prior to loading onto an HPLC ion exchange chromatography column (Mono-Q HR 5/5, Pharmacia, Uppsala, Sweden), previously equilibrated with buffer A. Bound proteins were eluted with a linear gradient of 0.1 to 0.45 M NaCl and the active fractions were detected using pNPG as substrate at pH 7.5 as described above. […] For the further purification of Form II the active fractions of the peak II were chromatographed on hydrophobic interaction chromatography. The fractions were pooled, brought to 1 M (NH4)2SO4 and loaded on to a hydrophobic interaction column (phenyl-Sepharose CL-4B, 0.5×12 cm, Pharmacia, Uppsala, Sweden) previously equilibrated with buffer A containing 1 M (NH4)2SO4. The protein was eluted with a reverse stepwise gradient from 1 to 0 M (NH4)2SO4 with 50 mM intervals in buffer A. Fractions containing the activity peak were collected and dialyzed for 12 h against buffer A and the dialysate was concentrated by reverse dialysis against solid sucrose. The enzyme, partially purified by hydrophobic interaction chromatography, was used for the characterization of Form II. The active fractions from the hydrophobic interaction column were further purified. Active fractions were separated electrophoretically using a Mini Prep Cell (Bio-Rad Laboratories, Hercules, Calif.) for discontinuous native-PAGE with 7% polyacrylamide, according to manufacturer's instructions. Fractions (0.25 ml/fraction) were assayed at pH 7.5 with pNPG as substrate for the activity. The active fractions were pooled, concentrated by Vivaspin Concentrator (Vivascience LTD, Lincoln, England), and run in a 8% SDS-PAGE. Proteins in the SDS-PAGE were identified using Coomassie Blue staining.

The target in assay [3] is T2, melon (Cucumis melo) fruit alkaline alpha-galactosidase Form I (Cucumis melo, UniProt Q84NI7).
T2 sequence (Q84NI7 1-754): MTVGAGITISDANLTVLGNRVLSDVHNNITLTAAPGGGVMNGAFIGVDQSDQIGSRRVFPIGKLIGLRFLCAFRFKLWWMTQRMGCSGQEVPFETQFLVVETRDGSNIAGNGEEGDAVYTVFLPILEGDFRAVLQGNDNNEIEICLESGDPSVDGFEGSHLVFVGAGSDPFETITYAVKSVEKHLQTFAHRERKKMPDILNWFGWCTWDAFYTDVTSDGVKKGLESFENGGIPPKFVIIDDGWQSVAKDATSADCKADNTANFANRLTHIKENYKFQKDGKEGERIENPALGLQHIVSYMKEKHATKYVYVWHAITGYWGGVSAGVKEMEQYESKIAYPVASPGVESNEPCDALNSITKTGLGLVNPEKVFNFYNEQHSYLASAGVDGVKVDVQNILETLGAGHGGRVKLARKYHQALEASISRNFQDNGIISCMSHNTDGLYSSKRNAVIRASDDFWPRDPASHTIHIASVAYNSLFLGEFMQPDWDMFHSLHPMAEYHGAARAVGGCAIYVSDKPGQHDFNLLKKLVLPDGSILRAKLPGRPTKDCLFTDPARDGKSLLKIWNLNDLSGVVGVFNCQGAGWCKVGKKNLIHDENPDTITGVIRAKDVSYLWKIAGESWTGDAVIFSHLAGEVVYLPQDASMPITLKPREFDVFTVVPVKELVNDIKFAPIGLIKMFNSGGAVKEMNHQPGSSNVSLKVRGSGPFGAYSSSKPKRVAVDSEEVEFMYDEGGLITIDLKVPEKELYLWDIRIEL
The assay can be described thus: Substrate kinetics (Lineweaver-Burk) of alkaline alpha-galactosidase Form I. As to the method: as §1, §2
Therefore, the active fractions from the Mono-Q column were used for the characterization of Form I. In addition, the Form I enzyme was further purified, as described in the following section.

In assay [4] the target is T2, melon (Cucumis melo) fruit alkaline alpha-galactosidase Form I. Description: Inhibition of alkaline alpha-galactosidase Form I by alternative substrate (galactose release). The arrangement: native 84 kDa, denatured 79 kDa; assayed at pH 7.5. In kind it is biochemical, muskmelon (Cucumis melo L. cv C-8). As to the method:
as §1

As to `OC[C@H]1O[C@H](OC[C@H]2O[C@H](OC[C@H]3O[C@H](O[C@]4(CO)O[C@H](CO)[C@@H](O)[C@@H]4O)[C@H](O)[C@@H](O)[C@@H]3O)[C@H](O)[C@@H](O)[C@H]2O)[C@H](O)[C@@H](O)[C@H]1O` [Stachyose, O-alpha-D-galactopyranosyl-(1-6)-O-alpha-D-galactopyranosyl-(1-6)-O-alpha-D-glucopyranosyl-(1-2)-beta-D-fructofuranoside], the Vmax/Km ratio is recorded as 0.65 in assay [1], 0.61 in assay [2] and 0.06 in assay [3]. The Vmax in assay [2] (Lineweaver-Burk) was found to be 2.2 μmol mg^−1 protein min^−1; in assay [3] (Lineweaver-Burk) it was 0.24 μmol mg^−1 protein min^−1. Also, in assay [4], the “inhibition by excess stachyose (free galactose release, in words)” value is “negligible; also recorded: does not decrease”.
